The results in this text go back to patent publication US11198687B2, “Heteroaryl allosteric modulators of nicotinic acetylcholine receptors” (Merck Sharp & Dohme Corp., priority 2017, dated 2021).

This assay addresses human α7 nAChR (Homo sapiens, UniProt P36544). As to the kind of experiment: Automated patch-clamp electrophysiology functional assay (Assay A). Format: cell-based. To be noted: IonFlux HT whole-cell population patch, HEK cell line stably expressing human RIC-3 and human α7, 40 μM acetylcholine. Summed up: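 Whole-cell population patch clamp at room temperature on HEK cells stably expressing human α7 and RIC-3, held at −60 mV. Compounds tested at three ascending concentrations per recording, with or without 40 μM acetylcholine; currents quantified relative to an initial 1 s 40 μM acetylcholine response; EC50 from concentration series.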

SMILES strings stand for the structures. Read-outs that look alike come from different tables or passages of the source.

human α7 nAChR, sequence (P36544 23-502): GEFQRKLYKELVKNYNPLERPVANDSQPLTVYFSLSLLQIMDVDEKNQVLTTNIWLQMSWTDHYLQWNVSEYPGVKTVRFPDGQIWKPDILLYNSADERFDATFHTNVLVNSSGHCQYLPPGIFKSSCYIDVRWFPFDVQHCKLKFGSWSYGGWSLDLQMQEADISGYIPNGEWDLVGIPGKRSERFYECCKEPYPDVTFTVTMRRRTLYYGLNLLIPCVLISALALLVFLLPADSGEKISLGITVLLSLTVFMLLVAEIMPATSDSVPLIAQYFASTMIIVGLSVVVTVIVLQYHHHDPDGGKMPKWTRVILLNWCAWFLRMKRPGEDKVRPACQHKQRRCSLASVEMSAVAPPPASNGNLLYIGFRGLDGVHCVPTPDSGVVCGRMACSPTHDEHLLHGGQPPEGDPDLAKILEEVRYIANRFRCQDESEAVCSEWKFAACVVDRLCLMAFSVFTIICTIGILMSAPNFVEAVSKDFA

Turning to `CC1(C)[C@@H](c2ccc(S(N)(=O)=O)cn2)[C@@H]1c1nc(C2CCC2)no1` (racemic) [Example G4, 6-[trans-3-(3-Cyclobutyl-1,2,4-oxadiazol-5-yl)-2,2-dimethylcyclopropyl]pyridine-3-sulfonamide], the EC50 (read-out: α7 nAChR Potency) lay in the range of 500 to 5000 nM. For `CC1(C)[C@@H](c2ccc(S(N)(=O)=O)cn2)[C@@H]1c1nc(-c2cccc(F)c2)no1` [Example F1, 6-{(1S,3S)-3-[3-(3-Fluorophenyl)-1,2,4-oxadiazol-5-yl]-2,2-dimethylcyclopropyl}pyridine-3-sulfonamide], the EC50 by setting is: (read-out: α7 nAChR EC50) 1100 nM; (read-out: α7 nAChR Potency) 500 to 5000 nM. For `CC1(C)[C@@H](c2ccc(S(N)(=O)=O)cn2)[C@@H]1c1nc(CC2CC2)no1` [Example F7, 6-{(1S,3S)-3-[3-(Cyclopropylmethyl)-1,2,4-oxadiazol-5-yl]-2,2-dimethylcyclopropyl}pyridine-3-sulfonamide], in that order: 1500 nM and 500 to 5000 nM. For `CC1(C)[C@@H](c2ccc(S(N)(=O)=O)nc2)[C@@H]1c1nc2ccccc2o1` (relative stereo) [Example C7, 5-[trans-3-(1,3-Benzoxazol-2-yl)-2,2-dimethylcyclopropyl]pyridine-2-sulfonamide], in that order: 1600 nM and 500 to 5000 nM. `CC1(C)[C@@H](c2ccc(S(N)(=O)=O)nc2)[C@@H]1c1noc(-c2c(F)cccc2F)n1` (racemic) [Example C12, 5-{trans-3-[5-(2,6-Difluorophenyl)-1,2,4-oxadiazol-3-yl]-2,2-dimethylcyclopropyl}pyridine-2-sulfonamide]: the EC50 is, setting by setting: (read-out: α7 nAChR EC50) 1200 nM; (read-out: α7 nAChR Potency) 500 to 5000 nM. Take `CC1(C)[C@@H](c2nc(C3CCC3)no2)[C@@H]1c1ncc(S(N)(=O)=O)s1` (racemic) [Example D2, 2-[trans-3-(3-Cyclobutyl-1,2,4-oxadiazol-5-yl)-2,2-dimethylcyclopropyl]-1,3-thiazole-5-sulfonamide]: the EC50 (read-out: α7 nAChR EC50) was determined as 1200 nM and the EC50 (read-out: α7 nAChR Potency) fell in the range of 500 to 5000 nM. Take `CC1(C)[C@H](c2nc(-c3ccccc3)no2)[C@H]1c1ncc(S(N)(=O)=O)s1` [Example D9, 2-[(1R,3R)-2,2-Dimethyl-3-(3-phenyl-1,2,4-oxadiazol-5-yl)cyclopropyl]-1,3-thiazole-5-sulfonamide]: the EC50 was 1700 nM (read-out: α7 nAChR EC50) and 500 to 5000 nM (read-out: α7 nAChR Potency). Regarding `CC1(C)[C@@H](c2ccc(S(N)(=O)=O)cn2)[C@@H]1c1nc(C2CCC2)no1` [Example F13, 6-[(1S,3S)-3-(3-Cyclobutyl-1,2,4-oxadiazol-5-yl)-2,2-dimethylcyclopropyl]pyridine-3-sulfonamide], the EC50 (read-out: α7 nAChR Potency) fell in the range of 500 to 5000 nM. `CC1(C)C(c2ccc(S(N)(=O)=O)nc2)C1c1cc(-c2cccc(F)c2)on1` (single isomer, unassigned) [Example C13, 5-{trans-3-[5-(3-Fluorophenyl)isoxazol-3-yl]-2,2-dimethylcyclopropyl}pyridine-2-sulfonamide]: the EC50 runs as follows: (read-out: α7 nAChR EC50) 1100 nM; (read-out: α7 nAChR Potency) 500 to 5000 nM.

Consider `CC1(C)[C@H](c2ccc(S(N)(=O)=O)nc2)[C@H]1c1nc(C2CCCC2)no1` [Example A3, 5-[(1R,3R)-3-(3-Cyclopentyl-1,2,4-oxadiazol-5-yl)-2,2-dimethylcyclopropyl]pyridine-2-sulfonamide], for which the EC50 is, setting by setting: (read-out: α7 nAChR EC50) 2900 nM; (read-out: α7 nAChR Potency) 500 to 5000 nM. For `CC1(C)[C@@H](c2ccc(S(N)(=O)=O)nc2)[C@@H]1c1nc(CC2CC2)no1` [Example B10, 5-{(1S,3S)-3-[3-(Cyclopropylmethyl)-1,2,4-oxadiazol-5-yl]-2,2-dimethylcyclopropyl}pyridine-2-sulfonamide], in that order: 1600 nM and 500 to 5000 nM. With `CC1(C)[C@H](c2ccc(S(N)(=O)=O)cn2)[C@H]1c1nc(C2CCCCC2)no1` [Example E7, 6-[(1R,3R)-3-(3-Cyclohexyl-1,2,4-oxadiazol-5-yl)-2,2-dimethylcyclopropyl]pyridine-3-sulfonamide], the EC50 (read-out: α7 nAChR Potency) was 500 to 5000 nM.
